Where a name gives a salt, the structure may show the parent alone. Read-outs that look alike come from different tables or passages of the source.
Legend:
virus influenza A = assay: microbe, parasite or virus in culture; type: cell-based; set-up: dose or concentration left out as unconfirmed; conditions: for inhibition: Influenza A virus, MDCK, dilution of virus 10^-3, read-out: % of inhibition of influenza A virus reproduction
[1] = system: some other cellular lines; conditions: cited from earlier work
influenza virus = conditions: cited from earlier work
in vitro = conditions: human
[2] = system: virus of hepatitis C strain JFH-1 (genotype 2a); assay: microbe, parasite or virus in culture; type: cell-based; conditions: for IC50: Hepatitis C virus, Huh-7.5.1, Huh7.5.1 cells, HCV JFH-1, 72 hours incubation, read-out: IC50 (IC50^HCV, antiviral activity); for Therapeutic index SI50 = TC50/IC50: HCV

Row | SMILES | inhibition (virus influenza A) | further results
1 | CCOC(=O)c1c(CSc2ccccc2)n(C)c2cc(-c3cc4cc(OC)ccc4[nH]3)c(O)c(CN(C)C)c12 [1.1.1(5)] | 60% | –
2 | CCOC(=O)c1c(CSc2ccccc2)n(C)c2cc(Br)c(O)c(CN(C)C)c12.Cl [Arbidol, ethyl 6-bromo-4-[(dimethylamino)methyl]-5-hydroxy-1-methyl-2-(phenylthiomethyl)-1H-indole-3-carboxylate hydrochloride] | – | TC50 [1]: 15 to 25 µg/mL; IC50 (influenza virus): 23.2 MκΓ/ml
3 | CCOC(=O)c1c(CN(C)CCO)n(C)c2cc(Br)c3c(c12)CN(C)CO3 [1.2(16)] | 90% | –
4 | CCCCC1Oc2c(Br)cc3c(c2CN1C)c(C(=O)OCC)c(CSc1ccccc1)n3C (centres unmarked) [1.2(37)] | 77% | –
5 | CCOC(=O)c1c(CN2CCCC2)n(C2CCCCC2)c2cc(Br)c3c(c12)CN(C)CO3 [1.2(10)] | 81% | –
6 | CCOC(=O)c1c(CSc2nc3ccccc3[nH]2)n(-c2ccccc2)c2cc(Br)c3c(c12)CN(C)CO3 [1.2(32)] | 65% | –
7 | CCOC(=O)c1c(CSc2ccccc2)n(C)c2cc(C#N)c(O)c(CN3CCCC(CO)C3)c12 (centres unmarked) [1.1(11)] | < 50% | –
8 | CN1COc2c(Br)cc3c(c2C1)c(C(=O)OC1CCCCC1)c(CNc1ccccc1)n3C [1.2(48)] | 76% | –
9 | CCOC(=O)c1c(CSc2ccccc2)n(C)c2cc(Br)c3c(c12)CN(CC)CO3 [1.2(31)] | 100% | –
10 | CCOC(=O)c1c(CSc2ccccc2)n(C)c2cc(Br)c3c(c12)CN(Cc1ccccc1)CO3 [1.2(35)] | 98% | –
11 | CCOC(=O)c1c(CSc2cccs2)n(C)c2cc(Br)c3c(c12)CN(C)CO3 [1.2(47)] | 100% | –
12 | CCOC(=O)c1c(CSc2ccc(Cl)cc2)n(C)c2cc(Br)c3c(c12)CN(C)CO3 [1.2(49)] | 90% | –
13 | CCOC(=O)c1c(CN(C)C)n(-c2ccccc2)c2ccc3c(c12)CN(C)CO3 [1.2(11)] | 77% | –
14 | CCOC(=O)c1c(CSc2ccccc2)n(C)c2cc(-c3cccc(O)c3)c(O)c(CN(C)C)c12 [1.2.1(2)] | 51% | –
15 | CCOC(=O)c1c(CN2CCC(C)CC2)n(Cc2ccccc2)c2cc(Br)c3c(c12)CN(C)CO3 [1.2(12)] | 85% | –
16 | CCOC(=O)c1c(CN(C)C)n(C)c2cc(C#N)c3c(c12)CN(C)CO3 [1.2(29)] | – | CC50 (in vitro): > 100 µM; IC50 [2]: > 100 µM
17 | CCOC(=O)c1c(CSc2ccccc2)n(C)c2cc(-c3cc4ccccc4[nH]3)c(O)c(CN(C)C)c12 [1.1.1(4)] | 66% | –
18 | CCOC(=O)c1c(CSc2ccccc2)n(C)c2cc(-c3cccc(N(C)C)c3)c(O)c(CN(C)C)c12 [1.2.1(3)] | 77% | –
19 | COC(=O)c1c(CSc2ccccc2)n(C)c2cc(Br)c3c(c12)CN(C)CO3 [1.2(46)] | 100% | –
20 | CCOC(=O)c1c(CSc2ccccc2)n(C)c2cc(-c3cc4ccccc4o3)c(O)c(CN(C)C)c12 [1.1.1(3)] | 52% | –
21 | CCOC(=O)c1c(CN2CCCCC2)n(Cc2ccccc2)c2cc(Br)c3c(c12)CN(C)CO3 [1.2(7)] | 100% | –
22 | CCOC(=O)c1c(CS(=O)(=O)c2ccc(Cl)cc2)n(C)c2cc(Br)c3c(c12)CN(C)CO3 [1.2(43)] | 77% | –

Row | SMILES | inhibition (virus influenza A) | further results
23 | CCOC(=O)c1c(CNc2ccc(C)cc2)n(C)c2cc(Br)c3c(c12)CN(C)CO3 [1.2(26)] | 100% | –
24 | CCOC(=O)c1c(CN2CCCCC2C)n(Cc2ccccc2)c2cc(Br)c3c(c12)CN(C)CO3 (centres unmarked) [1.2(13)] | 77% | –
25 | CCOC(=O)c1c(CNc2ccccc2)n(C)c2cc(C#N)c3c(c12)CN(C)CO3 [1.2(30)] | < 50% | –
26 | CCOC(=O)c1c(CN2CCCC2)n(C)c2cc(-c3cccnc3)c(O)c(CN(C)C)c12 [1.1.5(5c), ethyl 4-((dimethylamino)methyl)-5-hydroxy-1-methyl-6-(pyridin-3-yl)-2-(pyrrolidin-1-ylmethyl)-1H-indole-3-carboxylate hydrochloride] | – | CC50 (in vitro): > 100 µM; Therapeutic index SI50 = TC50/IC50 [2]: >20; IC50 [2]: < 5 µM
27 | CCOC(=O)c1c(COc2ccccc2)n(C)c2cc(-c3cccnc3)c(O)c(CN(C)C)c12 [1.2.1(29)] | 88% | –
28 | CCOC(=O)c1c(CSc2ccccc2)n(C)c2cc(C#N)c3c(c12)CN(C)CO3 [1.2(27)] | < 50% | –
29 | CCOC(=O)c1c(CNc2ccccc2)n(C)c2cc(Br)c3c(c12)CN(C)CO3 [1.2(44)] | 100% | –
30 | CCOC(=O)c1c(CSc2nc3ccccc3s2)n(-c2ccccc2)c2cc(Br)c3c(c12)CN(C)CO3 [1.2(34)] | < 50% | –
31 | CCOC(=O)c1c(CN2CCN(CCO)CC2)n(C)c2cc(Br)c3c(c12)CN(C)CO3 [1.2(14)] | 95% | –
32 | CCOC(=O)c1c(CSc2ccccc2)n(C)c2cc(-c3cccnc3)c(O)c(CN(C)C)c12 [1.2.1(5)] | 100% | –
33 | CCOC(=O)c1c(CN2CCN(C)CC2)n(Cc2ccccc2)c2cc(Br)c3c(c12)CN(C)CO3 [1.2(6)] | 92% | –
34 | CCOC(=O)c1c(CSc2ccccc2)n(C)c2cc(-c3ccc4[nH]ncc4c3)c(O)c(CN(C)C)c12 [1.1.1(6)] | 58% | –
35 | CCOC(=O)c1c(CN(C)C)n(C)c2cc(-c3cccnc3)c(O)c(CN3CCCC3)c12.Cl.Cl.Cl [1.1.5(2c), ethyl 2-((dimethylamino)methyl)-5-hydroxy-1-methyl-6-(pyridin-3-yl)-4-(pyrrolidin-1-ylmethyl)-1H-indole-3-carboxylate hydrochloride] | – | CC50 (in vitro): 75 µM; Therapeutic index SI50 = TC50/IC50 [2]: 11; IC50 [2]: 7 µM
36 | CCOC(=O)c1c(CNc2ccncc2)n(C)c2cc(Br)c3c(c12)CN(C)CO3 [1.2(18)] | 100% | –
37 | CCOC(=O)c1c(CSc2cc(C)ccc2C#N)n(C)c2cc(Br)c3c(c12)CN(C)CO3 [1.2(36)] | < 50% | –
38 | CCOC(=O)c1c(CNc2ccccc2)n(C)c2cc(-c3ccccc3)c3c(c12)CN(C)CO3 [1.2.3(7)] | 90% | –
39 | CCOC(=O)c1c(CN(C)C)n(C)c2cc(-c3ccccc3)c(O)c(Cn3ccnc3)c12.Cl.Cl [1.1.3(7)] | – | CC50 (in vitro): > 100 µM; Therapeutic index SI50 = TC50/IC50 [2]: >1.4; IC50 [2]: 72 µM
40 | CCOC(=O)c1c(CSc2ccccc2)n(C)c2cc(Br)c3c(c12)CN(C)C(c1ccccc1)O3 (centres unmarked) [1.2(39)] | 62% | –
41 | CCOC(=O)c1c(CSc2ccccc2)n(C)c2cc(-c3ccncc3)c3c(c12)CN(C)CO3 [1.2.2(5)] | 100% | –
42 | CCOC(=O)c1c(CSc2ccccc2)n(C)c2cc(-c3cncc4ccccc34)c(O)c(CN(C)C)c12 [1.1.1(9)] | 88% | –
43 | CCOC(=O)c1c(CSc2ccccc2)n(C)c2cc(-c3ccccc3)c(O)c(CN(C)C)c12 [1.2.1(1)] | 96% | –
44 | CCOC(=O)c1c(CSc2ccccc2)n(C)c2cc(-c3cncnc3)c3c(c12)CN(C)CO3 [1.2.2(7)] | 88% | –

Row | SMILES | inhibition (virus influenza A) | further results
45 | CCOC(=O)c1c(CNc2ccccc2)n(C)c2cc(-c3ccncc3)c3c(c12)CN(C)CO3 [1.2.3(8)] | 100% | –
46 | CCOC(=O)c1c(CSc2ccccc2)n(C)c2cc(C#N)c(O)c(CN(C)C)c12 [1.1(15)] | – | CC50 (in vitro): > 100 µM; Therapeutic index SI50 = TC50/IC50 [2]: >4; IC50 [2]: 28 µM
47 | CCOC(=O)c1c(CSc2ccccc2)n(C2CCCCC2)c2cc(Br)c3c(c12)CN(C)CO3 [1.2(41)] | 89% | –
48 | CCOC(=O)c1c(CSc2ccccc2)n(C)c2cc(-c3cn[nH]c3)c(O)c(CN(C)C)c12 [1.1.1(2)] | 63% | –
49 | CCOC(=O)c1c(CSc2ccccc2)n(C)c2cc(-c3cccnc3)c(O)c(CN3CCCC(CO)C3)c12 (centres unmarked) [1.2.1(23)] | 95% | –
50 | CCOC(=O)c1c(CNc2ccc(Cl)cc2)n(C)c2cc(Br)c3c(c12)CN(C)CO3 [1.2(45)] | 100% | –
51 | CCOC(=O)c1c(CSc2ccccc2)n(C)c2cc(-c3cccnc3)c3c(c12)CN(C)CO3 [1.2.2(8)] | 100% | –
52 | CCOC(=O)c1c(CO)n(C)c2cc(-c3cccnc3)c(O)c(CN(C)C)c12.Cl.Cl [1.1.2(35)] | – | CC50 (in vitro): > 100 µM; Therapeutic index SI50 = TC50/IC50 [2]: >16; IC50 [2]: 6 µM
53 | CCOC(=O)c1c(CSc2ccccc2)n(C)c2cc(-c3cncnc3)c(O)c(CN(C)C)c12 [1.1.1(7), ethyl 4-((dimethylamino)methyl)-5-hydroxy-1-methyl-2-(phenylthiomethyl)-6-(pyrimidin-5-yl)-1H-indole-3-carboxylate] | 62% | –
54 | Br.Br.CCOC(=O)c1c(CN2CCN(C)CC2)n(-c2ccccc2)c2ccc3c(c12)CN(C)CO3 [1.2(2)] | – | % of inhibition of influenza A virus reproduction (virus influenza A; dilution of virus 10^-3): <50%
55 | CCOC(=O)c1c(CN(C)C)n(C)c2cc(-c3cccnc3)c3c(c12)CN(C)CO3 [1.2.5(1c), hydrochloride] | – | CC50 (in vitro): 78 µM; Therapeutic index SI50 = TC50/IC50 [2]: 13; IC50 ([2]; GETYPE2A): 6 µM
56 | CCOC(=O)c1c(CSc2ccccc2)n(C)c2cc(-c3ccc(OC)nc3)c(O)c(CN(C)C)c12 [1.2.1(8)] | 81% | –
57 | CCCCN1COc2c(Br)cc3c(c2C1)c(C(=O)OCC)c(CSc1ccccc1)n3C [1.2(33)] | 95% | –
58 | CCOC(=O)c1c(CSc2ccccc2)n(C)c2cc(-c3ccncc3)c(O)c(CN(C)C)c12 [1.2.1(6)] | 100% | –
59 | CCOC(=O)c1c(C[S+]([O-])c2ccccc2)n(C)c2cc(-c3cccnc3)c(O)c(CN(C)C)c12.Cl.Cl (centres unmarked) [1.1.2(42)] | – | CC50 (in vitro): > 100 µM; Therapeutic index SI50 = TC50/IC50 [2]: >5; IC50 [2]: 18 µM
60 | CCOC(=O)c1c(Cn2ccnc2C)n(C)c2cc(Br)c3c(c12)CN(C)CO3 [1.2(19)] | 88% | –
61 | CCOC(=O)c1c(CS(=O)(=O)c2ccccc2)n(C)c2cc(Br)c3c(c12)CN(C)CO3 [1.2(42)] | 88% | –
62 | CCOC(=O)c1c(CN2CCN(c3ccccc3)CC2)n(C2CCCCC2)c2cc(Br)c3c(c12)CN(C)CO3 [1.2(9)] | 62% | –
63 | CCOC(=O)c1c(CN2CCN(C)CC2)n(-c2ccccc2)c2ccc3c(c12)CN(C)CO3 [1.2(1)] | < 50% | –
64 | CCOC(=O)c1c(CSc2ccccc2)n(C)c2cc(Br)c3c(c12)CN(C)CO3 [1.2(38)] | 100% | –

— US8329689B2 (priority 2006, dated 2012)
